Assay results as given in patent US12435044B2, “Pyridazinone herbicides and pyridazinone intermediates used to prepare a herbicide” (FMC Corporation, priority 2018, dated 2025).

Key:
Format in all cases: in vivo
[1] = test system: bromegrass, downy (downy bromegrass, Bromus tectorum); experiment: Test D postemergence controlled growth environment test
Excerpt: (§1) Seeds of plant species selected from blackgrass (Alopecurus myosuroides), galium (catchweed bedstraw, Galium aparine), kochia (Kochia scoparia), oilseed rape (Brassica napus), barley, spring (Hordeum vulgare), wheat, spring (Triticum aestivum), oat, wild (Avena fatua), barley, winter (Hordeum vulgare) and wheat, winter (Triticum aestivum) were planted into a silt loam soil and treated preemergence with test chemicals formulated in a non-phytotoxic solvent mixture which included a surfactant.
(§2) At the same time, plants selected from these crop and weed species and also bluegrass (annual bluegrass, Poa annua), canarygrass (littleseed canarygrass, Phalaris minor), chickweed (common chickweed, Stellaria media), bromegrass, downy (downy bromegrass, Bromus tectorum), field poppy (Papaver rhoeas), field violet (Viola arvensis), foxtail, green (Setaria viridis), deadnettle (henbit deadnettle, Lamium amplexicaule), ryegrass, Italian (Lolium multiflorum), lambsquarters (Chenopodium album), pigweed (Amaranthus retroflexus), chamomile (scentless chamomile, Matricaria inodora), Russian thistle (Salsola kali), speedwell (bird's-eye speedwell, Veronica persica), buckwheat, wild (Polygonum convolvulus), mustard, wild (Sinapis arvensis), radish, wild (Raphanus raphanistrum), windgrass (Apera spica-venti), geranium, cutleaf (Geranium dissectum) and Canada thistle (Cirsium arvense) were planted in pots containing Redi-Earth® planting medium (Scotts Company, 14111 Scottslawn Road, Marysville, Ohio 43041) comprising spaghnum peat moss, vermiculite, wetting agent and starter nutrients and treated with postemergence applications of the test chemicals formulated in the same manner. Plants ranged in height from 2 to 18 cm (1- to 4-leaf stage). Treated plants and controls were maintained in a controlled growth environment for 14 to 21 d after which time all species were compared to controls and visually evaluated. Plant response ratings, summarized in Table D, are based on a scale of 0 to 100 where 0 is no effect and 100 is complete control. A dash (-) response means no test result.

[2] = test system: field violet (Viola arvensis); experiment: as above
Excerpt: as §1, §2

[3] = test system: field poppy (Papaver rhoeas); experiment: as above
Excerpt: as §1, §2

[4] = test system: Russian thistle (Salsola kali); experiment: as above
Excerpt: as §1, §2

[5] = test system: Canada thistle (Cirsium arvense); experiment: as above
Excerpt: as §1, §2

[6] = test system: buckwheat, wild (Polygonum convolvulus); experiment: as above
Excerpt: as §1, §2

[7] = test system: lambsquarters (Chenopodium album); experiment: as above
Excerpt: as §1, §2

[8] = test system: foxtail, green (Setaria viridis); experiment: as above
Excerpt: as §1, §2

[9] = test system: pigweed (Amaranthus retroflexus); experiment: as above
Excerpt: as §1, §2

[10] = test system: bluegrass (annual bluegrass, Poa annua); experiment: as above
Excerpt: as §1, §2

[11] = test system: waterhemp_RES2, (ALS & HPPD resistant common waterhemp, Amaranthus rudis); experiment: Test E postemergence greenhouse test
Excerpt: (§3) Seeds of plant species selected from corn (Zea mays), soybean (Glycine max), velvetleaf (Abutilon theophrasti), lambsquarters (Chenopodium album), poinsettia, wild (Euphorbia heterophylla), pigweed, palmer (Amaranthus palmeri), waterhemp (common waterhemp, Amaranthus rudis), surinam grass (Brachiaria decumbens), crabgrass, large (Digitaria sanguinalis), crabgrass, Brazil (Digitaria horizontalis), panicum, fall (Panicum dichotomiflorum), foxtail, giant (Setaria faberii), foxtail, green (Setaria viridis), goosegrass (Eleusine indica), johnsongrass (Sorghum halepense), ragweed (common ragweed, Ambrosia elatior), barnyardgrass (Echinochloa crus-galli), sandbur (southern sandbur, Cenchrus echinatus), arrowleaf sida (Sida rhombifolia), ryegrass, Italian (Lolium multiflorum), dayflower, VA (Virginia (VA) dayflower, Commelina virginica), field bindweed (Convolvulus arvensis), morningglory (Ipomoea coccinea), horseweed (Conyza canadensis), kochia (Kochia scoparia), nutsedge, yellow (Cyperus esculentus) and hairy beggarticks (Bidenspilosa), were planted into a silt loam soil and treated preemergence with test chemicals formulated in a non-phytotoxic solvent mixture which included a surfactant.
(§4) At the same time, plants selected from these crop and weed species and also waterhemp_RES1, (ALS & Triazine resistant common waterhemp, Amaranthus rudis), and waterhemp_RES2, (ALS & HPPD resistant common waterhemp, Amaranthus rudis) were planted in pots containing Redi-Earth® planting medium (Scotts Company, 14111 Scottslawn Road, Marysville, Ohio 43041) comprising spaghnum peat moss, vermiculite, wetting agent and starter nutrients were treated with postemergence applications of test chemicals formulated in the same manner. Plants ranged in height from 2 to 18 cm for postemergence treatments (1- to 4-leaf stage). Treated plants and controls were maintained in a greenhouse for 14 to 21 d, after which time all species were compared to controls and visually evaluated. Plant response ratings, summarized in Table E, are based on a scale of 0 to 100 where 0 is no effect and 100 is complete control. A dash (-) response means no test result.

[12] = test system: waterhemp_RES1, (ALS & Triazine resistant common waterhemp, Amaranthus rudis); experiment: Test E postemergence greenhouse test
Excerpt: as §3, §4

## Cc1ccc2ccc(C)c(-c3c(O)c(Cl)nn(C)c3=O)c2c1 [Cpd. No. 20, 6-chloro-4-(2,7-dimethyl-1-naphthalenyl)-5-hydroxy-2-methyl-3(2H)-pyridazinone]
[1]; 16 g ai/ha
  Plant response rating, Bromegrass, Downy: 0
[1]; 31 g ai/ha
  Plant response rating, Bromegrass, Downy: 5
[1]; 62 g ai/ha
  Plant response rating, Bromegrass, Downy: 10
[1]; 125 g ai/ha
  Plant response rating, Bromegrass, Downy: 25
[2]; 16 g ai/ha
  Plant response rating, Field Violet: 80
[2]; 31 g ai/ha
  Plant response rating, Field Violet: 80
[2]; 62 g ai/ha
  Plant response rating, Field Violet: 95
[2]; 125 g ai/ha
  Plant response rating, Field Violet: 95
[3]; 16 g ai/ha
  Plant response rating, Field Poppy: 80
[3]; 31 g ai/ha
  Plant response rating, Field Poppy: 85
[3]; 62 g ai/ha
  Plant response rating, Field Poppy: 100
[3]; 125 g ai/ha
  Plant response rating, Field Poppy: 100
[4]; 16 g ai/ha
  Plant response rating, Russian Thistle: 80
[4]; 31 g ai/ha
  Plant response rating, Russian Thistle: 75
[4]; 62 g ai/ha
  Plant response rating, Russian Thistle: 80
[4]; 125 g ai/ha
  Plant response rating, Russian Thistle: 85
[5]; 16 g ai/ha
  Plant response rating, Canada Thistle: 75
[5]; 31 g ai/ha
  Plant response rating, Canada Thistle: 85
[5]; 62 g ai/ha
  Plant response rating, Canada Thistle: 95
[5]; 125 g ai/ha
  Plant response rating, Canada Thistle: 95
[6]; 16 g ai/ha
  Plant response rating, Buckwheat, Wild: 100
[6]; 31 g ai/ha
  Plant response rating, Buckwheat, Wild: 98
[6]; 62 g ai/ha
  Plant response rating, Buckwheat, Wild: 99
[6]; 125 g ai/ha
  Plant response rating, Buckwheat, Wild: 100
[7]; 16 g ai/ha
  Plant response rating, Lambsquarters: 90
[7]; 31 g ai/ha
  Plant response rating, Lambsquarters: 95
[7]; 62 g ai/ha
  Plant response rating, Lambsquarters: 90
[7]; 125 g ai/ha
  Plant response rating, Lambsquarters: 98
[8]; 16 g ai/ha
  Plant response rating, Foxtail, Green: 85
[8]; 31 g ai/ha
  Plant response rating, Foxtail, Green: 90
[8]; 62 g ai/ha
  Plant response rating, Foxtail, Green: 95
[8]; 125 g ai/ha
  Plant response rating, Foxtail, Green: 98
[9]; 16 g ai/ha
  Plant response rating, Pigweed: 98
[9]; 31 g ai/ha
  Plant response rating, Pigweed: 98
[9]; 62 g ai/ha
  Plant response rating, Pigweed: 100
[9]; 125 g ai/ha
  Plant response rating, Pigweed: 100
[10]; 16 g ai/ha
  Plant response rating, Bluegrass: 0
[10]; 31 g ai/ha
  Plant response rating, Bluegrass: 5
[10]; 62 g ai/ha
  Plant response rating, Bluegrass: 5
[10]; 125 g ai/ha
  Plant response rating, Bluegrass: 10
[11]; 16 g ai/ha
  Plant response rating, Waterhemp_RES2: 15
[11]; 31 g ai/ha
  Plant response rating, Waterhemp_RES2: 40
[11]; 62 g ai/ha
  Plant response rating, Waterhemp_RES2: 60
[11]; 125 g ai/ha
  Plant response rating, Waterhemp_RES2: 70
[12]; 16 g ai/ha
  Plant response rating, Waterhemp_RES1: 75
[12]; 31 g ai/ha
  Plant response rating, Waterhemp_RES1: 90
[12]; 62 g ai/ha
  Plant response rating, Waterhemp_RES1: 80
[12]; 125 g ai/ha
  Plant response rating, Waterhemp_RES1: 95
